Laboratory results: patent US8298756B2, “Isolation, gene expression, and chemotherapeutic resistance of motile cancer cells” (Albert Einstein College of Medicine of Yeshiva University, priority 2004, dated 2012)

Columns and labels:
[1] = test system: invasive cells and general population of carcinoma cells from MTLn3-derived tumors; experiment: Cell culture and apoptosis assay (Annexin V-Cy5 / PI) after drug challenge, invasive cells vs general population; format: cell-based, rat; settings: for drug tolerance (apoptotic index and cell viability) of invasive cells: as a percentage of all carcinoma cells, invasive vs general population of tumor cells, 24 hr recovery after drug, FIG. 3; for drug induced apoptotic index / cell death: invasive cells compared to carcinoma cells of the whole tumor, doxorobucin 17 μM, cisplatin 50 μM, etoposide 50 μM for 1 hr, 24 hrs recovery; for drug induced apoptotic index: Annexin V-Cy5; for cell death: PI staining
Procedure: The cells collected by the needle collection procedure were subjected to drug challenge using doxorobucin (17 μM), cisplatin (50 μM) or etoposide (50 μM). The apoptotic status and viability of these cells was assessed by staining with propedium iodide (PI) and Annexin V-Cy5. […] The graph represents viability status and apoptotic index of the cells after being challenged by the anticancer drugs. Cell culture and apoptosis assay. The cells extruded from the needles and tumor cells FACS sorted were cultured in DMEM 20% FCS along with streptomycin and penicillin, for 16 hrs. Subsequently, the cells were challenged with either doxorobucin (17 μM) or cisplatin (50 μM) or etoposide (50 μM) for 1 hr, washed and allowed to recover for 24 hrs. The cells were then subjected to an apoptosis assay kit containing Annexin V Cy5 for staining the apoptotic cells and Propedium Iodide (PI) for staining the dead cells (BD Biosciences San Jose, Calif.). After staining the cells using the manufacturer's protocol, the cells were observed under a fluorescent microscope in the green, red and high red channel for GFP, PI and Cy5 respectively. The total number of GFP cells counted was compared to the number of PI positive and Annexin V-Cy5 positive cells. […] We challenged the invasive cells with three most commonly used anticancer drugs, doxorobucin, cisplatin and etoposide. […] We performed these studies on the invasive and general populations of cells from MTLn3-derived tumors. After treatment with the drugs the cells were allowed to recover for 24 hr. Subsequently, the apoptotic index and cell viability was measured as described in the Methods section.

MTLn3 cells = settings: previous studies (Huigsloot et al., 2002); cited from earlier work

| SMILES | drug tolerance (apoptotic index and cell viability) of invasive cells [1] | drug induced apoptotic index [1] | cell death [1] | induction of apoptosis (MTLn3 cells) |
| --- | --- | --- | --- | --- |
| COc1cccc2c1C(=O)c1c(O)c3c(c(O)c1C2=O)C[C@@](O)(C(=O)CO)C[C@@H]3O[C@H]1C[C@H](N)[C@H](O)[C@H](C)O1 [doxorubicin] | invasive cells are able to tolerate all three drugs better than the general population of tumor cells | lower drug induced apoptotic index | lower cell death | induce apoptosis |
| N.N.[Cl][Pt][Cl] [cisplatin] | invasive cells are able to tolerate all three drugs better than the general population of tumor cells | lower drug induced apoptotic index | lower cell death | induce apoptosis |
| COc1cc([C@@H]2c3cc4c(cc3[C@@H](O[C@@H]3O[C@@H]5CO[C@@H](C)O[C@H]5[C@H](O)[C@H]3O)[C@H]3COC(=O)[C@H]23)OCO4)cc(OC)c1O [etoposide] | invasive cells are able to tolerate all three drugs better than the general population of tumor cells | lower drug induced apoptotic index | lower cell death | induce apoptosis |
